Experimental data: article PMC8286840, “Identifying SARS-CoV-2 antiviral compounds by screening for small molecule inhibitors of Nsp3 papain-like protease” (Biochemical Journal, 2021)
Structures can show the parent of a compound that is named as a salt. Where two headings read alike, the source gives them in different places.

Key:
[1] = biological target: T1, SARS-CoV-2 PLpro (nsp3 1564–1878) (Severe acute respiratory syndrome coronavirus 2, UniProt P0DTD1); assay: biochemical; design: FRET-quenched peptide (Pro3) cleavage by PLpro, 10 min pre-incubation, slope over 20 min, normalised to no-compound control; details: low concentration screen, read-out: % of control remaining
[2] = biological target: T1, SARS-CoV-2 PLpro (nsp3 1564–1878); assay: biochemical; design: FRET-quenched peptide (Pro3) cleavage by PLpro, 10 min pre-incubation, slope over 20 min, normalised to no-compound control; details: high concentration screen, read-out: % of control remaining

## CC1(C)CCC(C)(C)c2cc(NC(=O)c3ccc(C(=O)O)cc3)ccc21 [Tamibarotene]
[1]; Well no.=8108
  remaining activity at 1.25 µM: 97.6%
[2]; Well no.=8108
  remaining activity at 3.75 µM: 101%

## Nc1nc(-n2cccn2)nc(-n2cccn2)c1Br [Taminadenant]
[1]; Well no.=8565
  remaining activity at 1.25 µM: 99.5%
[2]; Well no.=8565
  remaining activity at 3.75 µM: 90.5%

## CC/C(=C(\c1ccccc1)c1ccc(OCCN(C)C)cc1)c1ccccc1 [Tamoxifen citrate]
[1]; Well no.=1184
  remaining activity at 1.25 µM: 97.1%
[2]; Well no.=1184
  remaining activity at 3.75 µM: 99.3%

## CC/C(=C(\c1ccccc1)c1ccc(OCCN(C)C)cc1)c1ccccc1 [Tamoxifen]
[1]; Well no.=2240
  remaining activity at 1.25 µM: 90.7%
[2]; Well no.=2240
  remaining activity at 3.75 µM: 93.3%

## CCOc1ccccc1OCCN[C@H](C)Cc1ccc(OC)c(S(N)(=O)=O)c1 [Tamsulosin]
[1]; Well no.=2295
  remaining activity at 1.25 µM: 95%
[1]; Well no.=7386
  remaining activity at 1.25 µM: 98.7%
[2]; Well no.=2295
  remaining activity at 3.75 µM: 95.1%
[2]; Well no.=7386
  remaining activity at 3.75 µM: 94.5%

## COc1cc2c(N3CCN(C(=O)Nc4ccc(OC(C)C)cc4)CC3)ncnc2cc1OCCCN1CCCCC1 [Tandutinib]
[1]; Well no.=2851
  remaining activity at 1.25 µM: 104%
[2]; Well no.=2851
  remaining activity at 3.75 µM: 104%

## C=CCNC1=C2C[C@@H](C)C[C@H](OC)[C@H](O)[C@@H](C)/C=C(\C)[C@H](OC(N)=O)[C@@H](OC)/C=C\C=C(/C)C(=O)NC(=CC1=O)C2=O [Tanespimycin (17-AAG)]
[1]; Well no.=8932
  remaining activity at 1.25 µM: 88%
[2]; Well no.=8932
  remaining activity at 3.75 µM: 84.1%

## O=C(O)COc1cccc(CN(Cc2ccc(-n3cccn3)cc2)S(=O)(=O)c2cccnc2)c1 [Taprenepag]
[1]; Well no.=6182
  remaining activity at 1.25 µM: 96%
[2]; Well no.=6182
  remaining activity at 3.75 µM: 97.6%

## C[C@H](NC(=O)C(C)(C)Oc1ccc(C(F)(F)F)cn1)[C@@H](Cc1ccc(Cl)cc1)c1cccc(C#N)c1 [Taranabant]
[1]; Well no.=7147
  remaining activity at 1.25 µM: 103%
[2]; Well no.=7147
  remaining activity at 3.75 µM: 87.5%

## COc1cc2c(cc1OC)CN(CCc1ccc(NC(=O)c3cc(OC)c(OC)cc3NC(=O)c3cnc4ccccc4c3)cc1)CC2 [Tariquidar]
[1]; Well no.=4796
  remaining activity at 1.25 µM: 98.7%
[2]; Well no.=4796
  remaining activity at 3.75 µM: 92.7%

## CCC(=O)NC[C@@H]1C[C@H]1c1cccc2c1CCO2 [Tasimelteon]
[1]; Well no.=6230
  remaining activity at 1.25 µM: 97.6%
[2]; Well no.=6230
  remaining activity at 3.75 µM: 99%

## C[C@H]1CCN(C(=O)CC#N)C[C@H]1N(C)c1ncnc2[nH]ccc12 [Tasocitinib]
[1]; Well no.=2789
  remaining activity at 1.25 µM: 103%
[2]; Well no.=2789
  remaining activity at 3.75 µM: 98.6%

## NCCS(=O)(=O)O [Taurine]
[1]; Well no.=1233
  remaining activity at 1.25 µM: 102%
[1]; Well no.=6299
  remaining activity at 1.25 µM: 98.3%
[2]; Well no.=1233
  remaining activity at 3.75 µM: 104%
[2]; Well no.=6299
  remaining activity at 3.75 µM: 96.7%

## C[C@H](CCC(=O)NCCS(=O)(=O)O)[C@H]1CC[C@H]2[C@@H]3[C@H](O)C[C@@H]4C[C@H](O)CC[C@]4(C)[C@H]3CC[C@]12C [Taurochenodeoxycholic acid]
[1]; Well no.=6294
  remaining activity at 1.25 µM: 101%
[2]; Well no.=6294
  remaining activity at 3.75 µM: 101%
[2]; Well no.=6493
  remaining activity at 3.75 µM: 103%

## O=S1(=O)CCN(CN2CCS(=O)(=O)NC2)CN1 [Taurolidine]
[1]; Well no.=5628
  remaining activity at 1.25 µM: 103%
[2]; Well no.=5628
  remaining activity at 3.75 µM: 109%

## C[C@H](CCC(=O)NCCS(=O)(=O)O)[C@H]1CC[C@H]2[C@@H]3[C@@H](O)C[C@@H]4C[C@H](O)CC[C@]4(C)[C@H]3CC[C@]12C [Tauroursodeoxycholate (Sodium)]
[1]; Well no.=6310
  remaining activity at 1.25 µM: 102%
[2]; Well no.=6310
  remaining activity at 3.75 µM: 104%

## C[C@H](CCC(=O)NCCS(=O)(=O)O)[C@H]1CC[C@H]2[C@@H]3[C@@H](O)C[C@@H]4C[C@H](O)CC[C@]4(C)[C@H]3CC[C@]12C [Tauroursodeoxycholate dihydrate]
[1]; Well no.=7112
  remaining activity at 1.25 µM: 95.4%
[2]; Well no.=7112
  remaining activity at 3.75 µM: 93.5%

## C[C@H](CCC(=O)NCCS(=O)(=O)O)[C@H]1CC[C@H]2[C@@H]3[C@@H](O)C[C@@H]4C[C@H](O)CC[C@]4(C)[C@H]3CC[C@]12C [Tauroursodeoxycholic Acid (TUDCA)]
[1]; Well no.=8200
  remaining activity at 1.25 µM: 109%
[2]; Well no.=8200
  remaining activity at 3.75 µM: 107%

## C[C@]1(Cn2ccnn2)[C@H](C(=O)O)N2C(=O)C[C@H]2S1(=O)=O [Tazobactam]
[1]; Well no.=7934
  remaining activity at 1.25 µM: 97.1%
[2]; Well no.=7934
  remaining activity at 3.75 µM: 103%

## OC[C@H]1O[C@@H](n2cnc3c(N[C@@H]4CCOC4)ncnc32)[C@H](O)[C@@H]1O [Tecadenoson]
[1]; Well no.=7966
  remaining activity at 1.25 µM: 96.9%
[1]; Well no.=8315
  remaining activity at 1.25 µM: 94.2%
[2]; Well no.=7966
  remaining activity at 3.75 µM: 96.1%
[2]; Well no.=8315
  remaining activity at 3.75 µM: 94.4%

## CCCCCNC(=N)N/N=C/c1c[nH]c2ccc(OC)cc12 [Tegaserod (maleate)]
[1]; Well no.=6615
  remaining activity at 1.25 µM: 103%
[2]; Well no.=6615
  remaining activity at 3.75 µM: 104%

## O=C(CNC(=O)c1cccc(C(F)(F)F)c1)N[C@@H]1CCN(Cc2ccc(Cl)cc2)C1 [Teijin compound 1 hydrochloride]
[1]; Well no.=5505
  remaining activity at 1.25 µM: 104%
[2]; Well no.=5505
  remaining activity at 3.75 µM: 112%

## CNC(=O)c1cc(COc2nnc(Nc3ccc(Cl)cc3)c3ccoc23)ccn1 [Telatinib (BAY 57-9352)]
[1]; Well no.=4858
  remaining activity at 1.25 µM: 99.7%
[2]; Well no.=4858
  remaining activity at 3.75 µM: 104%

## Cc1cn([C@@H]2C[C@@H](O)[C@H](CO)O2)c(=O)[nH]c1=O [Telbivudine]
[1]; Well no.=8380
  remaining activity at 1.25 µM: 92.4%
[1]; Well no.=8839
  remaining activity at 1.25 µM: 98.6%
[2]; Well no.=8380
  remaining activity at 3.75 µM: 92.3%
[2]; Well no.=8839
  remaining activity at 3.75 µM: 96.3%

## Cc1scc2c1N(C(=O)CN1CCN(C)CC1)c1ccccc1NC2=O [Telenzepine dihydrochloride]
[1]; Well no.=1186
  remaining activity at 1.25 µM: 95.7%
[2]; Well no.=1186
  remaining activity at 3.75 µM: 97.7%

## CCCc1nc2c(C)cc(-c3nc4ccccc4n3C)cc2n1Cc1ccc(-c2ccccc2C(=O)O)cc1 [Telmisartan]
[1]; Well no.=2297
  remaining activity at 1.25 µM: 95.4%
[1]; Well no.=6283
  remaining activity at 1.25 µM: 105%
[2]; Well no.=2297
  remaining activity at 3.75 µM: 94.3%
[2]; Well no.=6283
  remaining activity at 3.75 µM: 108%

## CCOC(=O)[C@@H](N)Cc1ccc(-c2cc(O[C@H](c3ccc(Cl)cc3-n3ccc(C)n3)C(F)(F)F)nc(N)n2)cc1 [Telotristat Etiprate (LX 1606 Hippurate)]
[1]; Well no.=8288
  remaining activity at 1.25 µM: 92.6%
[2]; Well no.=8288
  remaining activity at 3.75 µM: 92.1%

## CCOC(=O)[C@H](CCc1ccccc1)N[C@H]1CS[C@H](c2cccs2)CN(CC(=O)O)C1=O [Temocapril (hydrochloride)]
[1]; Well no.=8218
  remaining activity at 1.25 µM: 103%
[2]; Well no.=8218
  remaining activity at 3.75 µM: 99.9%

## CCOC(=O)[C@H](CCc1ccccc1)N[C@H]1CS[C@H](c2cccs2)CN(CC(=O)O)C1=O [Temocapril HCl]
[1]; Well no.=4764
  remaining activity at 1.25 µM: 106%
[2]; Well no.=4764
  remaining activity at 3.75 µM: 109%

## Cn1nnc2c(C(N)=O)ncn2c1=O [Temozolomide]
[1]; Well no.=1952
  remaining activity at 1.25 µM: 95%
[2]; Well no.=1952
  remaining activity at 3.75 µM: 99.1%

## COc1cnc(-n2cnc(C)n2)c2[nH]cc(C(=O)C(=O)N3CCN(C(=O)c4ccccc4)CC3)c12 [Temsavir]
[1]; Well no.=7886
  remaining activity at 1.25 µM: 97.2%
[2]; Well no.=7886
  remaining activity at 3.75 µM: 98%
